The record followed here is patent publication US9475809B2, “Substituted oxopyridine derivatives and use thereof as factor xia/plasma” (BAYER PHARMA AKTIENGESELLSCHAFT, priority 2013, dated 2016).

This assay addresses human factor XIa (Homo sapiens (Human), UniProt P03951). Briefly: Measurement of FXIa inhibition (fluorogenic peptide substrate). The conditions noted are these: factor XIa from Kordia 0.45 nM; substrate Boc-Glu(OBzl)-Ala-Arg-AMC; 30 min at 22° C. Type of assay: biochemical. The method, then:
a.1) Measurement of FXIa Inhibition
The factor XIa inhibition of the inventive substances is determined using a biochemical test system which utilizes the reaction of a peptidic factor XIa substrate to determine the enzymatic activity of human factor XIa. Here, factor XIa cleaves from the peptic factor XIa substrate the C-terminal aminomethylcoumarin (AMC), the fluorescence of which is measured. The determinations are carried out in microtitre plates.
In each case 1 μl of the diluted substance solutions is placed into the wells of white microtitre plates from Greiner (384 wells). […] After 15 min of incubation, the enzyme reaction is started by addition of 20 μl of the factor XIa substrate Boc-Glu(OBzl)-Ala-Arg-AMC dissolved in assay buffer (10 μM in assay buffer) from Bachem, the mixture is incubated at room temperature (22° C.) for 30 min and fluorescence is then measured (excitation: 360 nm, emission: 460 nm). The measured emissions of the test batches with test substance are compared to those of control batches without test substance (only dimethyl sulphoxide instead of test substance in dimethyl sulphoxide), and IC50 values are calculated from the concentration/activity relationships.

Sequence of human factor XIa (P03951 388-625): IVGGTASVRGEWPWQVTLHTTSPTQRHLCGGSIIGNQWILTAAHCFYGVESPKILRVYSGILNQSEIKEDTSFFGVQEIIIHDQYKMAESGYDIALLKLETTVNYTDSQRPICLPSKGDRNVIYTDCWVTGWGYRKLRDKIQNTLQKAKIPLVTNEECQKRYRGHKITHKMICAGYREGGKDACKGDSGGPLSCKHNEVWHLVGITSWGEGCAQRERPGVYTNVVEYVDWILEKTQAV
Sequence of human factor XIa (P03951 19-387 partner): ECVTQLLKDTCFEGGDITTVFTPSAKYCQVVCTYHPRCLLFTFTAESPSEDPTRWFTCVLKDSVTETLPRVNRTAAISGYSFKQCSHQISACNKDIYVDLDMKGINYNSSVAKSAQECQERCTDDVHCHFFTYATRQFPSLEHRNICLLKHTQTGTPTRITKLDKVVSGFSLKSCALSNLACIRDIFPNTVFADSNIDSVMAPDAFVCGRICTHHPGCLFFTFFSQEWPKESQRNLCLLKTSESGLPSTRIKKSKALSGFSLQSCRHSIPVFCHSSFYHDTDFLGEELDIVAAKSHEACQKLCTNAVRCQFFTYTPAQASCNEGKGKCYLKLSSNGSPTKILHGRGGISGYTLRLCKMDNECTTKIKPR

One may read the IC50 as the concentration at which inhibition is half-maximal. Low values mean higher potency, high ones lower potency. In turn, `O=C(Cn1c2c(c(-c3cc(Cl)ccc3Br)cc1=O)C(=O)CC2)Nc1ccc(-c2nnn[nH]2)cc1` [Example 9, 2-[4-(2-Bromo-5-chlorophenyl)-2,5-dioxo-2,5,6,7-tetrahydro-1H-cyclopenta[b]pyridin-1-yl]-N-[4-(1H-tetrazol-5-yl)phenyl]acetamide] showed an IC50 of 0.17 µM. Then `N#Cc1ccc(Cl)cc1-c1cc(=O)n(CC(=O)Nc2ccc(-c3cc(=O)[nH][nH]3)cc2)c2c1C(=O)CC2` [Example 14, 2-[4-(5-Chloro-2-cyanophenyl)-2,5-dioxo-2,5,6,7-tetrahydro-1H-cyclopenta[b]pyridin-1-yl]-N-[4-(5-oxo-2,5-dihydro-1H-pyrazol-3-yl)phenyl]acetamide], with 0.14 µM; and `O=C(Cn1c2c(c(-c3cc(Cl)ccc3Cl)cc1=O)C(=O)CC2)Nc1ccc(C(=O)O)cc1` [Example 4, 4-({[4-(2,5-Dichlorophenyl)-2,5-dioxo-2,5,6,7-tetrahydro-1H-cyclopenta[b]pyridin-1-yl]acetyl}amino)benzoic acid], with 0.42 µM. `CN1Cc2c(c(-c3cc(Cl)ccc3Cl)cc(=O)n2CC(=O)Nc2ccc(-c3nnn[nH]3)cc2)C1=O` [Example 2, 2-[4-(2,5-Dichlorophenyl)-6-methyl-2,5-dioxo-2,5,6,7-tetrahydro-1H-pyrrolo[3,4-b]pyridin-1-yl]-N-[4-(1H-tetrazol-5-yl)phenyl]acetamide] came in with an IC50 of 0.34 µM.

The compound `O=C(Cn1c2c(c(-c3cc(Cl)ccc3C(F)(F)F)cc1=O)C(=O)CC2)Nc1ccc(-c2cc(=O)[nH][nH]2)cc1` [Example 11, 2-{4-[5-Chloro-2-(trifluoromethyl)phenyl]-2,5-dioxo-2,5,6,7-tetrahydro-1H-cyclopenta[b]pyridin-1-yl}-N -[4-(5-oxo-2,5-dihydro-1H-pyrazol-3-yl)phenyl]acetamide] yielded an IC50 of 0.75 µM. Then `O=C(Cn1c2c(c(-c3cc(Cl)ccc3Cl)cc1=O)C(=O)CC2)Nc1ccc(-c2nnn[nH]2)cc1` [Example 3, 2-[4-(2,5-Dichlorophenyl)-2,5-dioxo-2,5,6,7-tetrahydro-1H-cyclopenta[b]pyridin-1-yl]-N-[4-(1H-tetrazol-5-yl)phenyl]acetamide], with 0.23 µM; and `O=C(Cn1c2c(c(-c3cc(Cl)ccc3Br)cc1=O)C(=O)CC2)Nc1ccc(-c2noc(=O)[nH]2)cc1` [Example 10, 2-[4-(2-Bromo-5-chlorophenyl)-2,5-dioxo-2,5,6,7-tetrahydro-1H-cyclopenta[b]pyridin-1-yl]-N-[4-(5-oxo-4,5-dihydro-1,2,4-oxadiazol-3-yl)phenyl]acetamide], with 0.19 µM. Next, `O=C(Cn1c2c(c(-c3cc(Cl)ccc3Cl)cc1=O)C(=O)CC2)Nc1ccc(-c2nc(C(F)(F)F)n[nH]2)cc1` [Example 6, 2-[4-(2,5-Dichlorophenyl)-2,5-dioxo-2,5,6,7-tetrahydro-1H-cyclopenta[b]pyridin-1-yl]-N-{4-[3-(trifluoromethyl)-1H-1,2,4-triazol-5-yl]phenyl}acetamide]: 0.55 µM. Then `N#Cc1ccc(Cl)cc1-c1cc(=O)n(CC(=O)Nc2ccc(-c3noc(=O)[nH]3)cc2)c2c1C(=O)CC2` [Example 13, 2-[4-(5-Chloro-2-cyanophenyl)-2,5-dioxo-2,5,6,7-tetrahydro-1H-cyclopenta[b]pyridin-1-yl]-N-[4-(5-oxo-4,5-dihydro-1,2,4-oxadiazol-3-yl)phenyl]acetamide], with 0.034 µM.

`O=C(Cn1c2c(c(-c3cc(Cl)ccc3Cl)cc1=O)C(=O)CC2)Nc1ccc(-c2cc(=O)[nH][nH]2)cc1` [Example 7, 2-[4-(2,5-Dichlorophenyl)-2,5-dioxo-2,5,6,7-tetrahydro-1H-cyclopenta[b]pyridin-1-yl]-N-[4-(5-oxo-2,5-dihydro-1H-pyrazol-3-yl)phenyl]acetamide]: the IC50 was 0.13 µM. Next, `N#Cc1ccc(Cl)cc1-c1cc(=O)n(CC(=O)Nc2ccc(-c3noc(=O)[nH]3)cc2)c2c1C(=O)CCC2` [Example 16, 2-[4-(5-Chloro-2-cyanophenyl)-2,5-dioxo-5,6,7,8-tetrahydroquinolin-1(2H)-yl]-N-[4-(5-oxo-4,5-dihydro-1,2,4-oxadiazol-3-yl)phenyl]acetamide]: 0.077 µM; `O=C(Cn1c2c(c(-c3cc(Cl)ccc3Cl)cc1=O)C(=O)CC2)Nc1ccc(-c2cnc[nH]2)cc1` [Example 8, 2-[4-(2,5-Dichlorophenyl)-2,5-dioxo-2,5,6,7-tetrahydro-1H-cyclopenta[b]pyridin-1-yl]-N-[4-(1H-imidazol-5-yl)phenyl]acetamide]: 0.47 µM.
